For six molecules, IC50 results are on record in ChEMBL document CHEMBL1159157, “Novel inhibitors of influenza sialidase related to GG167 Synthesis of 4-amino and guanidino-4H-pyran-2-carboxylic acid-6-propylamides; selective inhibitors of influenza a virus sialidase” (Bioorg Med Chem Lett, 1996).

For one assay, the system named is Influenza A virus. In words: In vitro antiviral activity was evaluated in a plaque reduction assay against influenza A. It is filed as functional, organism-based.
The test system of another assay is Influenza B virus. In words: In vitro antiviral activity was evaluated in a plaque reduction assay against influenza B. Type of assay: functional, organism-based.

Molecules are shown by their SMILES. ≈ marks a conversion by molar mass, not a printed value.

`CCCN(C)C(=O)[C@@H]1OC(C(=O)O)=C[C@H](NC(=N)N)[C@H]1NC(C)=O`: the results for the half-maximal inhibitory concentration (IC50) in the assay on Influenza A virus and with Influenza B virus were 11 ng/mL (≈ 0.0322 µM) and 2200 ng/mL (≈ 6.44 µM), respectively.
`CCCN(CCC)C(=O)[C@@H]1OC(C(=O)O)=C[C@H](NC(=N)N)[C@H]1NC(C)=O`: the half-maximal inhibitory concentration (IC50) with Influenza A virus was determined as 0.1 ng/mL (≈ 0.000271 µM).
For the molecule `CCCN(C)C(=O)[C@@H]1OC(C(=O)O)=C[C@H](N)[C@H]1NC(C)=O`, the half-inhibitory concentration (IC50) in the assay on Influenza A virus is 320 ng/mL (≈ 1.07 µM); with Influenza B virus, 16000 ng/mL (≈ 53.5 µM).
For the molecule `CCCNC(=O)[C@@H]1OC(C(=O)O)=C[C@H](N)[C@H]1NC(C)=O`, 44000 ng/mL (≈ 154 µM) corresponded to half-maximal inhibition in the assay with Influenza B virus (IC50).
Turning to `CC(=O)N[C@H]1[C@H]([C@H](O)[C@H](O)CO)OC(C(=O)O)=C[C@@H]1N`, the 50% inhibitory concentration (IC50) with Influenza A virus came out at 470 ng/mL (≈ 1.62 µM); with Influenza B virus, 20 ng/mL (≈ 0.0689 µM).
With `CCCNC(=O)[C@@H]1OC(C(=O)O)=C[C@H](NC(=N)N)[C@H]1NC(C)=O`, the figures for the IC50 in the assay with Influenza A virus and in the assay on Influenza B virus were 280 ng/mL (≈ 0.855 µM) and 3800 ng/mL (≈ 11.6 µM), respectively.
